According to ChEMBL document CHEMBL1142580, “Malettinins B-D: new polyketide metabolites from an unidentified fungal colonist of Hypoxylon Stromata (NRRL 29110)” (2005):

Legend:
Type in all cases: functional
Settings in all cases: read-out: IZ
Candida albicans = test: Antimicrobial activity against Candida albicans ATCC 90029 at 250 ug/disk by standard disk assay
Staphylococcus aureus = test: Antimicrobial activity against Staphylococcus aureus ATCC 29213 at 200 ug/disk by standard disk assay
Bacillus subtilis = test: Antimicrobial activity against Bacillus subtilis ATCC 6051 at 200 ug/disk by standard disk assay

Compound	zone of inhibition at 250 µg/disc (Candida albicans) [mm]	zone of inhibition at 200 µg/disc (Staphylococcus aureus) [mm]	zone of inhibition at 200 µg/disc (Bacillus subtilis) [mm]
Cc1cc(=O)c(O)cc2c1C[C@@H](C)[C@]1(OC[C@@H](C)[C@H]1O)O2 [MALETTININ B]	19	24	26
Cc1cc(=O)c(O)cc2c1C[C@@H](C)[C@@]1(OC[C@@H](C)[C@H]1O)O2 [MALETTININ C]	13	12	15
